Results: publication PMC12390684 (Viruses, 2025)

Target: IN-GCN2 interaction (6xHis-IN / GST-GCN2) (UniProt P04585+Q9P2K8)
Test: biochemical
Type: binding, HIV-1 IN; human GCN2
Details: at 33 µM, compared to DMSO

IN-GCN2 interaction (6xHis-IN / GST-GCN2), sequence (Q9P2K8 192-1024, other chains not shown): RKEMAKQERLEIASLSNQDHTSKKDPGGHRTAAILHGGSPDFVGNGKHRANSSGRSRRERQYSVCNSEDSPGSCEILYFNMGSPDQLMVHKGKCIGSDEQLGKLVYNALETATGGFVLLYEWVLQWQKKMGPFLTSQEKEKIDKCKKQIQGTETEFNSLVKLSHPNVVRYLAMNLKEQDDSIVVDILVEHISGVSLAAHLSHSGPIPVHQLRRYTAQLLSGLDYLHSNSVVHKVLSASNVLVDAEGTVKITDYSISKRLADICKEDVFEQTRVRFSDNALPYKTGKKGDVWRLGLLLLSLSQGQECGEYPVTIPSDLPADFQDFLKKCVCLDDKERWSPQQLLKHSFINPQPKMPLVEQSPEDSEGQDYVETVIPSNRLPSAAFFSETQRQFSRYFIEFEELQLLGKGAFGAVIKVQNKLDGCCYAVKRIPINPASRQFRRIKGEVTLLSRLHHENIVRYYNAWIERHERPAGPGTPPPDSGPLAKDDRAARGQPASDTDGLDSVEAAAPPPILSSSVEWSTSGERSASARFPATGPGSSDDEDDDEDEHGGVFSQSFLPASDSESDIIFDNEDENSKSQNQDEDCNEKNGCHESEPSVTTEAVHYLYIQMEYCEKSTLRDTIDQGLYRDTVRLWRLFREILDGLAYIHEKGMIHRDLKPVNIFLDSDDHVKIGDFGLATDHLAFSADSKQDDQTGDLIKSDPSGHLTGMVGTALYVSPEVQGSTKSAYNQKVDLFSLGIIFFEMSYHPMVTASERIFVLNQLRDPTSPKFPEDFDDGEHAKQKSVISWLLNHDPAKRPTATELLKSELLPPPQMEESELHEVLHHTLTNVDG

SMILES	AlphaLISA signal in dose-response [%]
COc1ccc2c(=O)oc3c(OC)cc(CCN(C)C)c4c(=O)oc1c2c34 [NSC76022]	120

Same assay, conditions: at 100 µM, compared to DMSO

SMILES	AlphaLISA signal in dose-response [%]
COc1ccc2c(=O)oc3c(OC)cc(CCN(C)C)c4c(=O)oc1c2c34 [NSC76022]	200

Same assay, conditions: screen, single dose 100 µM, single replicate; residual AlphaLISA signal normalized to DMSO control

SMILES	IN-GCN2 interaction (%)
CC(C)C[C@H](N)C(=O)O [NSC46709]	84.16
COc1cc2c(cc1OC)C(O)C(O)(CO)C(C(=O)O)C2c1cc(OC)c(OC)c(OC)c1 (centres unmarked) [NSC50131]	78.06
COc1cc2c(cc1OC)C(c1cc(OC)c(OC)c(OC)c1)C1(O)C(=O)OCC1(O)C2 (centres unmarked) [NSC50132]	86.33
O=C1CC(c2ccccc2)Oc2ccccc21 (centres unmarked) [NSC50393]	103.95
CO[C@@H]1[C@@H](O[C@@H]2O[C@H](C)[C@@H](O[C@H]3C[C@@](C)(O)[C@@H](OC(=O)CC(C)C)[C@H](C)O3)[C@H](N(C)C)[C@H]2O)[C@@H](CC=O)C[C@@H](C)C(=O)/C=C/[C@@H]2O[C@H]2C[C@@H](C)OC(=O)C[C@H]1OC(C)=O [NSC51001]	99.20
COc1cc(O)c(C(=O)/C=C/c2ccccc2)c(OC)c1 [NSC51351]	51.53
CO[C@@]12[C@H](COC(N)=O)C3=C(C(=O)C(C)=C(N)C3=O)N1C[C@H]1[C@@H]2N1C (some centres unmarked) [NSC56410]	73.33
CCN1C[C@]2(COC)[C@H](O)C[C@H](OC)[C@@]34[C@@H]5C[C@@]6(O)[C@H](OC(=O)c7ccccc7)[C@@H]5[C@@](OC(C)=O)([C@@H]([C@H](OC)[C@H]23)[C@@H]14)[C@@H](O)[C@@H]6OC [NSC56464]	148.00
C1CCC(NC2CCCCC2)CC1.COC1C(OC(=O)/C=C/C=C/C=C/C=C/C(=O)O)CCC2(CO2)C1C1(C)OC1CC=C(C)C (centres unmarked) [NSC58368]	95.05
CSC[S@@+]([O-])CC(CO)NC(=O)/C=C/c1c(C)[nH]c(=O)[nH]c1=O (some centres unmarked) [NSC59729]	102.04
COc1cc2c3c(c4ccc(OC)c(OC)c4c2cc1OC)CN1CCC[C@@H]1C3 [NSC60387]	110.26
C[N+]1(C)C2CC(OC(=O)C(CO)c3ccccc3)CC1C1OC12 (centres unmarked) [NSC61809]	93.88
COc1ccc(-c2c(C)c(C(=O)O)nc(-c3ccc4c(O)c(OC)c5c(c4n3)=NC(C)(C)N=5)c2N)c(O)c1OC [NSC62709]	123.77
CNC[C@H](O)c1ccc(O)c(O)c1 [NSC62786]	108.20
CC[C@H]1OC(=O)[C@H](C)[C@@H](OC2CC(C)(OC)C(O)C(C)O2)[C@H](C)[C@@H](OC2OC(C)CC(N(C)C)C2OC(=O)CCC2CCCC2)[C@](C)(O)C[C@@H](C)C(=O)[C@H](C)[C@@H](O)[C@]1(C)O (some centres unmarked) [NSC63946]	43.14
CC(C)[C@]12CC(=O)[C@@H](C)[C@H]1C2 [NSC67392]	80.58
CC[C@]1(O)C[C@H]2CN(CCc3c([nH]c4ccccc34)[C@@](C(=O)OC)(c3cc4c(cc3OC)N(C=O)[C@H]3[C@@](O)(C(=O)OC)[C@H](OC(C)=O)[C@]5(CC)C=CCN6CC[C@]43[C@@H]65)C2)C1 [NSC67574]	113.01
COc1ccc2[nH]c3c(C)c4ccncc4c(C)c3c2c1 [NSC69187]	42.76
CC1=C(O)C(=O)C=C2C1=CC=C1[C@@]2(C)CC[C@@]2(C)[C@@H]3C[C@](C)(C(=O)O)CC[C@]3(C)CC[C@]12C [NSC70931]	100.77
Cc1c2ccncc2c(C)c2c1[nH]c1ccccc12 [NSC71795]	107.18
COC(=O)[C@@H]1[C@H]2C[C@@H]3c4[nH]c5ccccc5c4CCN3C[C@@H]2CC[C@@H]1O [NSC72116]	99.30

SMILES	IN-GCN2 interaction (%)
COC(=O)[C@H]1[C@H]2C[C@@H]3c4[nH]c5ccccc5c4CCN3C[C@H]2C[C@@H](OC(=O)c2cc(OC)c(OC)c(OC)c2)[C@@H]1OC [NSC72138]	30.11
COC(=O)C1=COC(C)C2CN3CCc4c([nH]c5cc(OC)c(OC)cc45)C3CC12.O=C(O)CC(O)(CC(=O)O)C(=O)O (centres unmarked) [NSC72715]	63.54
C[N+]1([O-])[C@@H]2CC[C@H]1CC(OC(=O)C(CO)c1ccccc1)C2 (some centres unmarked) [NSC72861]	92.58
COc1ccc2c(c1)[C@@]13CCN4CC5=CCO[C@H]6CC(=O)N2[C@H]1[C@H]6[C@H]5C[C@H]43 [NSC72862]	85.38
COc1cc2c(cc1OC)C13CCN4CC5CCOC6CC(=O)N2C1C6C5CC43 (centres unmarked) [NSC72917]	90.85
N=C(N)CCNC(=O)C1CCC(N)=N1 (centres unmarked) [NSC72942]	100.21
COc1cc(OC)c(C(=O)/C=C/c2ccc(OC)c(OC)c2)c(OC)c1 [NSC75527]	89.20
CC[C@@H](O)C[C@H]1CCC[C@@]2(C[C@@H]3OC(=O)/C=C/[C@@](C)(O)[C@@H](O)[C@H](C)[C@@H](O)[C@H](OC4CCC(N(C)C)C(C)O4)[C@@H](O)[C@](C)(O)CCCCC/C=C/[C@@H]4CC(C)(C)O[C@@]4(O)C[C@H](O2)[C@H]3C)O1 (some centres unmarked) [NSC76627]	52.50
CC1=C[C@H](O)[C@@H](O)[C@]2(C)[C@H]3[C@@]4(O)OC[C@@]35[C@@H](C[C@@H]12)OC(=O)C[C@H]5[C@@H](C)[C@H]4O [NSC79404]	87.44
COc1ccc2c3c([nH]c2c1)[C@H]1C[C@H]2[C@H](C[C@@H](O)[C@H](OC)[C@H]2C(=O)O)CN1CC3 [NSC81463]	97.85
CC1(C)Oc2cc3oc(=O)ccc3c3c2C2C1CCC(C)(O3)C2O (centres unmarked) [NSC83433]	78.75
COc1c2c(c3c(c1CCC(=O)O)OC(C)(C)C=C3)OC(C)(C)C=C2 [NSC83436]	100.62
C[C@]12CCC(=O)[C@](C)(CO)[C@@H]1CC[C@@]13C[C@@H](CC[C@@H]12)[C@@H](C(=O)O)C3 [NSC83439]	107.59
C=C1C(=O)O[C@@H]2[C@H]1CC[C@H](C)[C@@H]1C=CC(=O)[C@@]21C [NSC85235]	40.36
C=C1C(=O)O[C@@H]2C[C@@H](C)[C@@H]3C=CC(=O)[C@@]3(C)[C@@H](O)[C@H]12 [NSC85236]	117.15
C=C1C(=O)O[C@@H]2[C@H]1CC[C@H](C)[C@]1(O)C=CC(=O)[C@@]21C [NSC85239]	120.23
CN(N=O)C(=O)N[C@@H](C=O)[C@@H](O)[C@H](O)[C@H](O)CO [NSC85998]	75.18
COc1cc(C)c2c(c1C=O)Oc1c(c(C)c(O)c3c1C(O)OC3=O)OC2=O (centres unmarked) [NSC87511]	159.91
CC1=C(O)C(=O)C(C2=C(O)C(=O)C(C)=C(O)C2=O)=C(O)C1=O [NSC88466]	52.93
C[C@H]1CCC/C=C/[C@@H]2C[C@H](O)C[C@H]2[C@H](O)/C=C/C(=O)O1 [NSC89671]	129.13
CC(C)[C@@](O)(C(=O)OCC1=CCN2CC[C@H](O)[C@@H]12)[C@H](C)O [NSC89937]	65.06

Same assay, conditions: screen, single dose 100 µM, single replicate; residual AlphaLISA signal normalized to DMSO control; listed as 46728

SMILES	IN-GCN2 interaction (%)
C=C1C(=O)OC2CC1C(OC(C)=O)C/C(C)=C/CC/C(C)=C\CCC2(C)O (centres unmarked) [NSC46728]	93.27

Same assay, conditions: screen, single dose 100 µM, single replicate; residual AlphaLISA signal normalized to DMSO control; listed as 59258

SMILES	IN-GCN2 interaction (%)
O=C(O)C1(O)C[C@@H](O)C(O)[C@H](O)C1 (some centres unmarked) [NSC59258]	71.78

Same assay, conditions: screen, single dose 100 µM, single replicate; residual AlphaLISA signal normalized to DMSO control; listed as 63701

SMILES	IN-GCN2 interaction (%)
N#Cc1cn([C@@H]2O[C@H](CO)[C@@H](O)[C@H]2O)c2ncnc(N)c12 [NSC63701]	116.97
